Reference: US20150250175A1, “PESTICIDALLY ACTIVE MIXTURES COMPRISING ANTHRANILAMIDE COMPOUNDS” (BASF SE, priority 2012, published 2015)

What was measured:
[1] = system: tobacco budworm (Heliothis virescens); assay: Tobacco budworm (Heliothis virescens) control, insect diet with eggs, 96-well plates; settings: 5 days
[2] = system: Mediterranean fruitfly (Ceratitis capitata); assay: Mediterranean fruitfly (Ceratitis capitata) control, insect diet with eggs, 96-well plates; settings: 5 days
[3] = system: vetch aphid (Megoura viciae); assay: Vetch aphid (Megoura viciae) control, broad bean leaf disks in 24-well microtiter plates; format: in vivo; settings: sprayed on leaf disks, aphid mortality and fecundity after 5 days
Excerpt: After application, the leaf disks were air-dried and 5-8 adult aphids placed on the leaf disks inside the microtiter plate wells. […] Aphid mortality and fecundity was then visually assessed.

[4] = system: green peach aphid (Myzus persicae); assay: Green peach aphid (Myzus persicae) control, systemic, artificial diet under membrane, 96-well plates; format: in vivo; settings: 3 days
Excerpt: After application, 5-8 adult aphids were placed on the artificial membrane inside the microtiter plate wells. […] Aphid mortality and fecundity was then visually assessed.

[5] = system: boll weevil (Anthonomus grandis); assay: Boll weevil (Anthonomus grandis) control, insect diet with eggs, 24-well plates; settings: 5 days
[6] = 0.08 + 0 ppm (mixing partner alone at 0.08 ppm)
[7] = 0 + 0.2 ppm (compound I alone at 0.2 ppm)
[8] = 0 + 1 ppm (compound I alone at 1 ppm)
[9] = 0 + 5 ppm (compound I alone at 5 ppm)
[10] = 3.2 + 0 ppm (mixing partner alone at 3.2 ppm)
[11] = 0.0016 + 0 ppm (mixing partner alone at 0.0016 ppm)

CN/C(=N\[N+](=O)[O-])NCc1cnc(Cl)s1 [Clothianidin]
Average (Control %) [1, 6]: 0%
Average (Control %) ([2]; 1 + 0 ppm (mixing partner alone at 1 ppm)): 0%

CCS(CC)=NC(=O)c1cc(Cl)cc(C)c1NC(=O)c1cc(C(F)(F)F)nn1-c1ncccc1Cl [Compound I-11, 2-(3-chloro-2-pyridyl)-N-[2-methyl-4-chloro-6-[(diethyl-λ^4-sulfanylidene)carbamoyl]phenyl]-5-(trifluoromethyl)pyrazole-3-carboxamide]
Average (Control %) ([3]; Spirotetramat + I-11 at 0 + 1 ppm (I-11 alone, 1 ppm)): 0%
Average (Control %) [1, 7]: 0%
Average (Control %) [4, 8]: 0%
Average (Control %) [5, 8]: 0%

CCS(CC)=NC(=O)c1cc(Cl)cc(Cl)c1NC(=O)c1cc(C(F)(F)F)nn1-c1ncccc1Cl [Compound I-16, 2-(3-chloro-2-pyridyl)-N-[2,4-dichloro-6-[(diethyl-λ^4-sulfanylidene)carbamoyl]phenyl]-5-(trifluoromethyl)pyrazole-3-carboxamide]
Average (Control %) [1, 8]: 0%
Average (Control %) [4, 8]: 25%
Average (Control %) [2, 9]: 0%

Cc1cc(Cl)cc(C(=O)N=S(C(C)C)C(C)C)c1NC(=O)c1cc(C(F)(F)F)nn1-c1ncccc1Cl [Compound I-21, 2-(3-chloro-2-pyridyl)-N-[2-methyl-4-chloro-6-[(bis-2-propyl-λ^4-sulfanylidene)carbamoyl]phenyl]-5-(trifluoromethyl)pyrazole-3-carboxamide]
Average (Control %) [1, 7]: 0%
Average (Control %) [1, 8]: 50%
Average (Control %) [2, 9]: 0%
Average (Control %) [5, 9]: 0%

CC[S+]([O-])c1c(C#N)nn(-c2c(Cl)cc(C(F)(F)F)cc2Cl)c1N (centres unmarked) [Ethiprol]
Average (Control %) [1, 6]: 0%
Average (Control %) ([2]; 10 + 0 ppm (mixing partner alone at 10 ppm)): 0%
Average (Control %) ([5]; 2 + 0 ppm (mixing partner alone at 2 ppm)): 50%

CCOC(=O)OC1=C(c2cc(C)ccc2C)C(=O)N[C@]12CC[C@@H](OC)CC2 [Spirotetramat, spirotetramat, reference compound]
Average (Control %) ([3]; Spirotetramat + I-11 at 80 + 0 ppm (Spirotetramat alone, 80 ppm)): 25%
Average (Control %) [1, 10]: 0%
Average (Control %) [4, 10]: 0%
Average (Control %) ([4]; 80 + 0 ppm (mixing partner alone at 80 ppm)): 50%

N#C/N=C1\SCCN1Cc1ccc(Cl)nc1 [Thiacloprid]
Average (Control %) [4, 11]: 50%
Average (Control %) [5, 11]: 0%

Spinosad
Average (Control %) [1, 6]: 0%
Average (Control %) ([1]; 0.4 + 0 ppm (mixing partner alone at 0.4 ppm)): 0%
Average (Control %) [2, 6]: 0%
Average (Control %) [5, 6]: 0%
